Literature values in patent US20120315265A1, “HYDROGEL-FORMING POLYMER, AND PREPARATION PROCESS AND USES THEREOF” (CHANG GUNG UNIVERSITY, priority 2011, published 2012).

Legend:
[1] = in the anterior chamber
[2] = in vivo

Compound: CC[C@@H]1C(=O)OC[C@@H]1Cc1cncn1C [pilocarpine]
- effective therapeutic dose for IOP reduction [1]: 10 to 33 µg/mL
- duration of pupillary constriction [2]: up to 8 hour
